Reference: article PMC11879040, “Advancing systemic toxicity risk assessment: Evaluation of a NAM-based toolbox approach” (Toxicological Sciences, 2024)
Where two headings read alike, the source gives them in different places.

Assays:
[1] = system: Potassium Voltage-Gated Channel Kv non-selective, KCNQ1 (r); assay: IPP KCNQ1 binding (antagonist radioligand); parameters: species or system rat
[2] = system: Gamma-aminobutyric acid receptor subunit alpha-1 BZD site, GABRA1A (r); assay type: binding, rat
[3] = system: Sodium channel protein type 5 subunit alpha (site 2), SCN5A (r); assay type: binding, rat
[4] = molecular target: T1, Adenosine receptor A2a, ADORA2A (h) (Homo sapiens, UniProt P29274); assay: IPP ADORA2A binding (agonist radioligand); settings: control NECA
T1 construct: purchased Eurofins Cerep (SafetyScreen44-based IPP panel)

[5] = molecular target: T2, Constitutive androstane receptor CAR, NR1I3 (h) (Homo sapiens, UniProt Q14994); assay type: biochemical
T2 sequence (Q14994 1-352): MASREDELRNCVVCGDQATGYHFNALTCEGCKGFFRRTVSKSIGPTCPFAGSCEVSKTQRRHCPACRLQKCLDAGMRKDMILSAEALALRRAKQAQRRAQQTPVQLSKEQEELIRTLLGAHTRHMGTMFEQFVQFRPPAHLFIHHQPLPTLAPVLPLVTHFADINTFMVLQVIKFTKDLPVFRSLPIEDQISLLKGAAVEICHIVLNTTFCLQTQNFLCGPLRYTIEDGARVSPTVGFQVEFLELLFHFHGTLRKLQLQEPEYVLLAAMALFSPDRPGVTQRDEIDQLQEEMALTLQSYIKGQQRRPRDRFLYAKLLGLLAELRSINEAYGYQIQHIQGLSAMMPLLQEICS

[6] = molecular target: T3, Estrogen receptor, ER1 (h) (Homo sapiens, UniProt P03372); assay: IPP ER1 coactivator recruitment (agonist); assay type: biochemical; settings: 100 uM, estriol, * denotes assay interference (2-Amino-6-chloro-4-nitrophenol, HC Red 3)
T3 construct: purchased Eurofins Cerep (SafetyScreen44-based IPP panel)
T3 sequence (P03372 1-595): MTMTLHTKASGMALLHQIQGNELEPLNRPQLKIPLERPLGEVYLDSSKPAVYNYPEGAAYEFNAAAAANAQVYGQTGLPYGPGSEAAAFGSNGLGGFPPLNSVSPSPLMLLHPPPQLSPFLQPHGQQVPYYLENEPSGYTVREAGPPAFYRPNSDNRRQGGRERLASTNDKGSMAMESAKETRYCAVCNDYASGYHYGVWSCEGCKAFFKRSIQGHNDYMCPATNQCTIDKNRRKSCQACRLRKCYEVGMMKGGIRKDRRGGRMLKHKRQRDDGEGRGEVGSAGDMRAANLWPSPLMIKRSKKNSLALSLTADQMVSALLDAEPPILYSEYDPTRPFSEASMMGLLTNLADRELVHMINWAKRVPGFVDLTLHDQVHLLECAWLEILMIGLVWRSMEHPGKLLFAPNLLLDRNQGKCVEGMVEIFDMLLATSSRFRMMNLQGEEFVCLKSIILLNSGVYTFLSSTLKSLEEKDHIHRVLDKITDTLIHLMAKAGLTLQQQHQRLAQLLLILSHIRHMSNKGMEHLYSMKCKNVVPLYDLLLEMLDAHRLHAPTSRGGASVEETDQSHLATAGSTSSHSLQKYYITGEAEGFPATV

[7] = molecular target: T3, Estrogen receptor, ER1 (h); assay: IPP ER1 coactivator recruitment (antagonist); assay type: biochemical; settings: 100 uM, estriol, * denotes assay interference (2-Amino-6-chloro-4-nitrophenol, HC Red 3)
[8] = system: Thyroid hormone receptor alpha, THRA (h); assay: IPP THRA coactivator recruitment (agonist); assay type: biochemical, human; settings: agonist, T3
[9] = system: Tubulin (r); assay: IPP Tubulin binding; parameters: species or system rat
[10] = system: HepG2 cells; assay: Cell stress panel (CSP), 24 h, 8 concentrations, BIFROST global PoD; assay type: cell-based; settings: HepG2; cell stress panel PoD
Method: Compounds were tested using the previously developed cell stress panel ([Hatherell et al. 2020]) and the expanded biomarker panel outlined in Middleton et al. HepG2 cells were treated with all compounds for 24 h across 8 concentrations prior to biomarker analysis. The same plate layout and number of replicates (3 biological and 2 technical) were used as previously for each assay within the panel.

[11] = system: HepG2 cells; assay: High-throughput transcriptomics (HTTr, TempO-Seq), HepG2, 24 h; assay type: cell-based, human; settings: HepG2; for pod_httr_bifrost PoD: HTTr BIFROST PoD; for podl_path_minbmd PoD: HTTr minimum pathway BMD(L)
Method: (§1) HepG2, HepaRG, and MCF7 cells were treated with each compound for 24 h across a dose range of 7 concentrations and lysed using TempO-Seq lysis buffer (BioSpyder Technologies, proprietary kit, see [Middleton et al. 2022] for method details). Sequencing was performed using TempO-Seq (BioClavis) version 2 of the human whole transcriptome panel and analyzed as described previously in Middleton et al.

[12] = system: HepaRG cells; assay: High-throughput transcriptomics (HTTr, TempO-Seq), HepaRG, 24 h; assay type: cell-based, human; settings: HepaRG; for pod_httr_bifrost PoD: HTTr BIFROST PoD; for podl_path_minbmd PoD: HTTr minimum pathway BMD(L)
Method: as §1

[13] = system: MCF7 cells; assay: High-throughput transcriptomics (HTTr, TempO-Seq), MCF7, 24 h; assay type: cell-based, human; settings: MCF-7; for pod_httr_bifrost PoD: HTTr BIFROST PoD; for podl_path_minbmd PoD: HTTr minimum pathway BMD(L)
Method: as §1

[14] = system: 63 targets with known safety liabilities; assay: In vitro pharmacological profiling (IPP) panel, screening at 10 or 100 µM and dose response, minimum IC50/AC50; assay type: biochemical; settings: lowest AC50 across IPP panel (systemic targets); cell_type -; read-out: ipp_lowest_ac50_systemic PoD
[15] = system: Glutamate receptor ionotropic NMDA 1 non-selective, GRIN1 (r)
[16] = molecular target: Potassium voltage-gated channel subfamily H member 2 hERG, KCNH2 (h) (Homo sapiens, UniProt Q12809); settings: human, 100 µM
[17] = molecular target: T4, Pregnane X receptor PXR, NR1I2 (h) (Homo sapiens, UniProt O75469)
T4 sequence (O75469 1-434): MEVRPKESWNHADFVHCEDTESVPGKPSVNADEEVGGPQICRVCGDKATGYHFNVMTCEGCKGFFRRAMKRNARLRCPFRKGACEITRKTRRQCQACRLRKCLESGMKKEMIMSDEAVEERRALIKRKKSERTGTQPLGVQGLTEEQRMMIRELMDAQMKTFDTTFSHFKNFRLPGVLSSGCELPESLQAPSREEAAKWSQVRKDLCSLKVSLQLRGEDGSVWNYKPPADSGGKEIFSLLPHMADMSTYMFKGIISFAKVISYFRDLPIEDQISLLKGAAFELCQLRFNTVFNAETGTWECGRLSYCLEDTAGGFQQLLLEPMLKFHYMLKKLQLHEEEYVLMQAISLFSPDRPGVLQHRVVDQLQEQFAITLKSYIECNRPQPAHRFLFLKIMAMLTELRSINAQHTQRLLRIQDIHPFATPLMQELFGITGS

[18] = human
[19] = system: rat; settings: ref [2], cited from earlier work
[20] = PBK level L2; per chemical see Peff Reference; ref [3],[4],[11]; cited from earlier work
[21] = molecular target: T5, Progesterone receptor, PGR (h) (Homo sapiens, UniProt P06401); assay: biochemical; assay type: biochemical
T5 sequence (P06401 1-933): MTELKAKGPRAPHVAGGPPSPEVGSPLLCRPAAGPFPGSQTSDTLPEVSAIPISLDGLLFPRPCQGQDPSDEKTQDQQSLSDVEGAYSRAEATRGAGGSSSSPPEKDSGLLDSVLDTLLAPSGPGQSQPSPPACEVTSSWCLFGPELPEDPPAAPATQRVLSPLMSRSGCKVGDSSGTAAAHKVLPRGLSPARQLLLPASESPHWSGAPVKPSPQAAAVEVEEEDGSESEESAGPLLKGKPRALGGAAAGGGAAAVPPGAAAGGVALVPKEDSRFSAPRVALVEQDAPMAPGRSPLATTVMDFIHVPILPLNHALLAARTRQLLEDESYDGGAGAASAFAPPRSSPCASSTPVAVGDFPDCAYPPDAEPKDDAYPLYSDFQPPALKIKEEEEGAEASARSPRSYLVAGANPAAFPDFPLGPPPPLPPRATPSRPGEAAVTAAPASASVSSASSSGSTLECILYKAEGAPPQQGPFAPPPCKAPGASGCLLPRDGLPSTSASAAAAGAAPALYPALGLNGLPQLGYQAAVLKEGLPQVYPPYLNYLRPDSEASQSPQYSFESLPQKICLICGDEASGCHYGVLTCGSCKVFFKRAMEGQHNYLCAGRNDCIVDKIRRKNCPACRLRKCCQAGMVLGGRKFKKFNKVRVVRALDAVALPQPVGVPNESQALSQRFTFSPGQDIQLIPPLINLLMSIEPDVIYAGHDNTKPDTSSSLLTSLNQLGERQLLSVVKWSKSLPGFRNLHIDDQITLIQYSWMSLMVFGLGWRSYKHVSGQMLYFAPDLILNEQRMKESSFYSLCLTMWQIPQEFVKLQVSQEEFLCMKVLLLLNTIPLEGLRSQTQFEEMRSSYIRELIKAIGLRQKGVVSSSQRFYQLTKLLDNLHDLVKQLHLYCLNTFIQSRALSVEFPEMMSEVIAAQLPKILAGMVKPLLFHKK

[22] = system: mouse; settings: mouse, cited from earlier work
[23] = molecular target: Voltage-dependent L-type Ca2+ channel (dihydropyridine site), CACNA1C (r) (Rattus norvegicus, UniProt P22002); assay type: binding
[24] = 12 healthy female, cited from earlier work
[25] = 100 uM, * denotes assay interference (2-Amino-6-chloro-4-nitrophenol, HC Red 3)
[26] = 100 uM, ligand/control Colchicine
[27] = IPP screening at 100 uM, control CGS 19755
[28] = Oral 50 mg (IR: Capsule), fasted, calibration, ref Huttner et al. 2018
[29] = human, Oral 100 mg, Fasted, validation, ref Huttner et al., Journal of Antimicrobial Chemotherapy (2018) 74(6): 1656-1661

T1 sequence (P29274 whole entry): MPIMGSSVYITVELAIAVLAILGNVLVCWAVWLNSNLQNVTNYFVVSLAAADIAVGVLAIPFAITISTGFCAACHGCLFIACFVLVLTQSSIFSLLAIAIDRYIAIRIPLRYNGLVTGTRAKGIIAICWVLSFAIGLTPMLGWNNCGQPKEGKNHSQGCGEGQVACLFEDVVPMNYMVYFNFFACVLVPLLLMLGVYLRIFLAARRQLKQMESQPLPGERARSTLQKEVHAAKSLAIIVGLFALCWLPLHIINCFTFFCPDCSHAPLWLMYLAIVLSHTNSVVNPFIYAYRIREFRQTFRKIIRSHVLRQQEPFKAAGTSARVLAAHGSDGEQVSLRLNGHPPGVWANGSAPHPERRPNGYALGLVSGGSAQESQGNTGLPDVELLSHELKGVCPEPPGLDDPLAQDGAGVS
Chain of Potassium voltage-gated channel subfamily H member 2 hERG, KCNH2 (h) (Q12809 whole entry): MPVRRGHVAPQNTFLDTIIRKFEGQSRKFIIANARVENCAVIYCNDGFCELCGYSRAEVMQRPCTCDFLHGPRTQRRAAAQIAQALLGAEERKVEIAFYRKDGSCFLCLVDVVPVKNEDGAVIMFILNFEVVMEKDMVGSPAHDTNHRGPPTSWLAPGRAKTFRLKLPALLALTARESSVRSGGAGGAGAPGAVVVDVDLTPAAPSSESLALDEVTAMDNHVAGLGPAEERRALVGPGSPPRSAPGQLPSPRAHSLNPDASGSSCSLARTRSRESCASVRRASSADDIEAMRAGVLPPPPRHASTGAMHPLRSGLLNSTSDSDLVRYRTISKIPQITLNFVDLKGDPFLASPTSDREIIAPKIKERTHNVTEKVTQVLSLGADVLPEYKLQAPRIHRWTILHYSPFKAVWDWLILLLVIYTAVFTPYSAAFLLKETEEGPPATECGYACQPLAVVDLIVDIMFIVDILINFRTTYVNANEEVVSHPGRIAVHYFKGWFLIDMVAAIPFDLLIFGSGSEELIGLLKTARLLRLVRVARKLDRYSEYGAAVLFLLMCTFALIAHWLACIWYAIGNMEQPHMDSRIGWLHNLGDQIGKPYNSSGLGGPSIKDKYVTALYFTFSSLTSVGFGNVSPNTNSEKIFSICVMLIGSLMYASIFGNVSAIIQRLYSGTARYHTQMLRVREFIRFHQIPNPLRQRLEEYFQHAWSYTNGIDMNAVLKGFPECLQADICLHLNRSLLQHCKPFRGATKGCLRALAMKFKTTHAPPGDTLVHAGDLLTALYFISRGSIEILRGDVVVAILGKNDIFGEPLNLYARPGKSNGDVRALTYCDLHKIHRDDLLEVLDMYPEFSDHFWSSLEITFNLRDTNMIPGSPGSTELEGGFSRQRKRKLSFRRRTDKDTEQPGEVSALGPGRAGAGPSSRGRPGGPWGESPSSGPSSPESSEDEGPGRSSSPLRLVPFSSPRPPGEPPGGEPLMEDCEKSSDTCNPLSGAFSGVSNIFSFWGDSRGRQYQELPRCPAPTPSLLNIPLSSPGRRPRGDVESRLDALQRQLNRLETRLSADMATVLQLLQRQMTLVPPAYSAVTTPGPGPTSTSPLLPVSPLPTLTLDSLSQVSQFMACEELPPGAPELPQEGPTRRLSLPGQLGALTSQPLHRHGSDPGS
Chain of Voltage-dependent L-type Ca2+ channel (dihydropyridine site), CACNA1C (r) (P22002 whole entry): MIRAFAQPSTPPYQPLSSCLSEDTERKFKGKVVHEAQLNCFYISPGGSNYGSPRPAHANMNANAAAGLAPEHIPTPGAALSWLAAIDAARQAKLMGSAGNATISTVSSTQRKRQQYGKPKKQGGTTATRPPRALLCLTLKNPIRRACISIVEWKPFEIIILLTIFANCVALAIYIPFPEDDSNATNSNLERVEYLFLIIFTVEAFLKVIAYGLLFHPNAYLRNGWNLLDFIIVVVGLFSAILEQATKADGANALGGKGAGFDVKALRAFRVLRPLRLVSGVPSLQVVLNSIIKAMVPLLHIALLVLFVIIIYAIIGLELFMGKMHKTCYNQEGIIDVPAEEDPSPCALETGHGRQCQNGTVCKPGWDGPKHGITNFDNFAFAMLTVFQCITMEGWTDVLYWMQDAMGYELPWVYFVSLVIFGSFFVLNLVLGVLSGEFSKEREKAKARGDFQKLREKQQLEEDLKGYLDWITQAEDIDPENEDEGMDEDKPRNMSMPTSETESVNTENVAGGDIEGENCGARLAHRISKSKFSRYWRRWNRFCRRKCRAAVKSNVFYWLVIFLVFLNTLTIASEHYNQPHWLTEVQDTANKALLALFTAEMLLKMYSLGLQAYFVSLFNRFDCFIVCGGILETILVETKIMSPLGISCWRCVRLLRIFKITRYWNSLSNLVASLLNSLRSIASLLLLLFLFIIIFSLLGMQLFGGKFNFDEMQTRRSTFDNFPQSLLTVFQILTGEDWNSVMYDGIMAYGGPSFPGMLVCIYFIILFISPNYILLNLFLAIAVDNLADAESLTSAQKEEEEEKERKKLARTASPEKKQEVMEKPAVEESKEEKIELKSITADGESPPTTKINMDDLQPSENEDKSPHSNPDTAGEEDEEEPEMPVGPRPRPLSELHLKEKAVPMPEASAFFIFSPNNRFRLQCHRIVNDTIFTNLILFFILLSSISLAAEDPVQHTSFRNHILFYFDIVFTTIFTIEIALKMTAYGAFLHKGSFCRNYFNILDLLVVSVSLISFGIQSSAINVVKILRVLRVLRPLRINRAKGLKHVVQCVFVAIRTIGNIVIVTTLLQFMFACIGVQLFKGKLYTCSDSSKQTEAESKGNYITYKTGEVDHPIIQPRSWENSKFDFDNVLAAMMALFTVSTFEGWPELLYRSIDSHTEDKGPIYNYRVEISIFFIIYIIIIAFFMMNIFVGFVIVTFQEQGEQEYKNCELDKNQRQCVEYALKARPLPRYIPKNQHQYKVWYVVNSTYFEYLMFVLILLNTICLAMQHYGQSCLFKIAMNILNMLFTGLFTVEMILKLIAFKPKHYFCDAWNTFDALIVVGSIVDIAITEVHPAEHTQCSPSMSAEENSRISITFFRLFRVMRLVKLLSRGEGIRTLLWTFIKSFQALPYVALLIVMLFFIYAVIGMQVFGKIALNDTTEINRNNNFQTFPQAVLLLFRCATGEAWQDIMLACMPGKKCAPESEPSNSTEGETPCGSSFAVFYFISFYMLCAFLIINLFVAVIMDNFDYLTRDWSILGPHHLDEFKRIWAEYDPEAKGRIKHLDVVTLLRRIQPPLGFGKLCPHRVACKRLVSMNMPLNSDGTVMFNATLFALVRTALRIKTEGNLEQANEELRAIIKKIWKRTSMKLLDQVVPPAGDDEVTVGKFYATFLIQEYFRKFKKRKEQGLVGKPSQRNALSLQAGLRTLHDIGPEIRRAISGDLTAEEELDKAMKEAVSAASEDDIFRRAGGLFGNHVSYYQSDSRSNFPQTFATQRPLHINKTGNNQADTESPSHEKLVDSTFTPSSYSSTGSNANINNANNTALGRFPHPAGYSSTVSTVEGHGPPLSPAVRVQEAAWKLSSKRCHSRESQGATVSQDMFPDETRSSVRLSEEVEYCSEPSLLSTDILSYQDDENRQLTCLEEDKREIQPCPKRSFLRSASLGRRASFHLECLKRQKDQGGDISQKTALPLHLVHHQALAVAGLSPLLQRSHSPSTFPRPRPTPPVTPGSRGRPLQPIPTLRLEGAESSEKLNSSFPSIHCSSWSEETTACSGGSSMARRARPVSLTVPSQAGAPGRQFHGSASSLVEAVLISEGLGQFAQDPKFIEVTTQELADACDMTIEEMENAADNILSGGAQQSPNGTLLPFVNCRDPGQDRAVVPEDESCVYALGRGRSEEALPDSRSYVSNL

| SMILES | Specific binding ([4]; IPP screening at 100 uM) [%] | IPP screening %, Coactivator recruitment [8, 25] | IPP screening %, Specific binding [9, 26] [%] | pod_cell_stress PoD [10] [µM] | pod_httr_bifrost PoD [11] [µM] | podl_path_minbmd PoD [11] [µM] | pod_httr_bifrost PoD [12] [µM] | podl_path_minbmd PoD [12] [µM] | pod_httr_bifrost PoD [13] [µM] | podl_path_minbmd PoD [13] [µM] | Specific binding [15, 27] [%] | risk [18] | Specific binding [2] [%] | Specific binding [3] [%] | other results |
| --- | --- | --- | --- | --- | --- | --- | --- | --- | --- | --- | --- | --- | --- | --- | --- |
| Nc1cc([N+](=O)[O-])cc(Cl)c1O [2-Amino-6-chloro-4-nitrophenol] | 3.6 | 41.0* % | 5.0 | 0.2197 | 0.8029 | 158.096 | 1.518 | 35.7772 | 0.4471 | 9.316 | 21.2 | 0 | – | – | Specific binding ([1]; IPP screening at 100 uM, control α-dendrotoxin): 13.7%; Specific binding ([2]; IPP screening at 100 uM, control diazepam): 14.3%; Specific binding ([3]; IPP screening at 100 uM, control veratridine): 31.5%; IPP Dose Response PoD: CAR antagonist effect [5]: [40.9,86.1]; IPP screening %, Coactivator recruitment [6]: 6.0* %; IPP screening %, Coactivator recruitment [7]: -9.0* %; AC50 [14]: 1.53 µM; IPP screening %, Specific binding [16]: 10.7%; IPP Dose Response PoD: PXR antagonist [17]: [37.1,80.3]; NOAEL ([19]; 90-day rat study, increased liver weights): 10 mg/kg bw/day; dose up to which no maternal or fetal effects were observed ([19]; reproductive and developmental toxicity rat study): 90 mg/kg bw/day; Peff [20]: 7.96 cm/s x E-04 |
| O=P1(N(CCCl)CCCl)NCCCO1 (stereo not shown) [Cyclophosphamide, 2-[Bis(2-chloroethyl)amino]-1,3,2lambda~5~-oxazaphosphinan-2-one] | 15.0 | -1.0% | -4.0 | 3.329 | 118.124 | 783.625 | 7.071 | 31.838 | 0.08892 | 210.107 | 6.8 | 1 | 19.4 | 12.4 | Specific binding [1]: 17.5%; EC50 [21]: > 300 µM; PoD (NOAEL) ([22]; 42 days, developmental neurotox study, ref ToxRefDB/Paul-Friedman et al. (2020)/regulatory opinions): 45 mg/kg bw/day |
| O=C1CN(N=Cc2ccc([N+](=O)[O-])o2)C(=O)N1 [Nitrofurantoin, 1-{[(5-Nitrofuran-2-yl)methylidene]amino}imidazolidine-2,4-dione] | – | – | – | 0.5175 | 0.5233 | 2.98 | 0.1863 | 2.332 | 0.3553 | 7.519 | – | 1 | 7.2 | 4.4 | Specific binding [23]: -6.9%; Specific binding ([1]; IPP screening at 10 uM, control α-dendrotoxin): -14.6%; Specific binding ([4]; IPP screening at 10 uM): 37.8%; IPP screening %, Coactivator recruitment ([8]; 10 uM): 0.0%; IPP screening %, Specific binding [9]: 7.0%; Specific binding [15]: -2.8%; PoD (NOAEL) ([22]; in vivo): 60 mg/kg bw/day; Reported AUC0-t [24, 28]: 3040 to 6400 ng·h/mL; Reported cmax [24, 28]: 0.21 to 0.45 mg/L; Reported tmax [24, 28]: 30 to 300 min; Reported AUC0-t [24, 29]: 940 to 10970 ng·h/mL; Reported cmax [24, 29]: 0.22 to 1.26 mg/L; Reported tmax [24, 29]: 30 to 300 min |
